Test results: patent US12600709B2, “Nonpeptide somatostatin type 5 receptor agonists and uses thereof” (Crinetics Pharmaceuticals, Inc., priority 2019, dated 2026)
Read-outs that look alike come from different tables or passages of the source.

Target: T1, human somatostatin receptor subtype 5 (Homo sapiens, UniProt P35346)
T1 construct: expressed in transfected cells
Experiment: cAMP assay for SST5R (inhibition of cAMP in CHO-K1 cells)
Format: cell-based
Settings: for EC50: inhibition of cAMP via human SST5 receptor, read-out: SST5 potency
In short: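 CHO-K1 cells stably expressing human SSTR5 were treated 20 min at 37 °C with compounds plus 1.6 μM NKH477 in HBSS, 0.5 mM HEPES pH 7.4, 0.1% BSA, 0.2 mM IBMX. Lysate cAMP measured by HTRF against a standard curve; EC50 from cAMP-versus-concentration plots.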

T1 sequence (P35346 whole entry): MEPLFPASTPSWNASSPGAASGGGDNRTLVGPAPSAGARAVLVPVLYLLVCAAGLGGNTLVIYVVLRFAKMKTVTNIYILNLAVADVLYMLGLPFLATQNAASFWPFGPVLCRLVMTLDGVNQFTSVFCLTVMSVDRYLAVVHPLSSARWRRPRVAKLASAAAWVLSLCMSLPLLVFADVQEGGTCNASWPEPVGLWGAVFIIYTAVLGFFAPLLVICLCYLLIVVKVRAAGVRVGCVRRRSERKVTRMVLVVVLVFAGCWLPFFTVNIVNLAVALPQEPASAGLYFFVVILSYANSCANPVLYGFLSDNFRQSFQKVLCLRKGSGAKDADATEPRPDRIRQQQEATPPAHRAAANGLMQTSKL

| Structure (SMILES) | EC50 (Table A) [nM] | Fold selectivity for SST5 vs SST2 (Table B, class symbols, SST5 receptor over SST2 receptor) | EC50 (Table B) [nM] |
| --- | --- | --- | --- |
| Cc1cccc2[nH]c(-c3cncc(C(=O)Nc4ccccc4)c3N3CC[C@](C)(N)C3)nc12 [2-6, 4-[(3S)-3-amino-3-methylpyrrolidin-1-yl]-5-(4-methyl-1H-1,3-benzodiazol-2-yl)-N-phenylpyridine-3-carboxamide] | < 10 | – | – |
| COc1ncc(C(=O)N2CCC(F)(F)CC2)c(N2CC[C@H](N)C2)c1-c1cc(F)cc(F)c1 [1-236, (3S)-1-[3-(3,5-difluorophenyl)-5-(4,4-difluoropiperidine-1-carbonyl)-2-methoxypyridin-4-yl]pyrrolidin-3-amine] | > 1000 | – | – |
| Cc1cccc2[nH]c(-c3cncc(C(=O)N4CCCC4(C)C)c3N3CC[C@](C)(N)C3)nc12 [2-20, (3S)-1-[3-(2,2-dimethylpyrrolidine-1-carbonyl)-5-(4-methyl-1H-1,3-benzodiazol-2-yl)pyridin-4-yl]-3-methylpyrrolidin-3-amine] | < 10 | – | – |
| N#Cc1cccc(-c2cncc(C(=O)NCc3ccccc3)c2N2CC[C@H](N)C2)c1 [1-9, 4-[(3S)-3-aminopyrrolidin-1-yl]-N-benzyl-5-(3-cyanophenyl)pyridine-3-carboxamide] | 100 to 1000 | – | – |
| C[C@H](NC(=O)c1cnc(C(F)(F)F)c(-c2ccc(F)c(F)c2)c1N1CC[C@](C)(N)C1)C1CC1 [1-209, 4-[(3S)-3-amino-3-methylpyrrolidin-1-yl]-N-[(1S)-1-cyclopropylethyl]-5-(3,4-difluorophenyl)-6-(trifluoromethyl)pyridine-3-carboxamide] | < 10 | +++ (+++=>500) | < 10 |
| N[C@H]1CCN(c2c(C(=O)NC3CCC(F)(F)CC3)cnc(OCCCC(=O)O)c2-c2cc(F)cc(F)c2)C1 [1-205, 4-({4-[(3S)-3-aminopyrrolidin-1-yl]-5-[(4,4-difluorocyclohexyl)carbamoyl]-3-(3,5-difluorophenyl)pyridin-2-yl}oxy)butanoic acid] | < 10 | – | – |
| C[C@H](NC(=O)c1cncc(-c2cccc(OC(F)F)c2)c1N1CC[C@](C)(N)C1)C1CC1 [1-149, 4-[(3S)-3-amino-3-methylpyrrolidin-1-yl]-N-[(1S)-1-cyclopropylethyl]-5-[3-(difluoromethoxy)phenyl]pyridine-3-carboxamide] | < 10 | – | – |
| CC(C)(NC(=O)c1cncc(-c2cc(F)cc(F)c2)c1N1CC[C@](C)(N)C1)C1CC1 [1-40, 4-[(3S)-3-amino-3-methylpyrrolidin-1-yl]-N-(2-cyclopropylpropan-2-yl)-5-(3,5-difluorophenyl)pyridine-3-carboxamide] | 10 to 100 | – | – |
| Cc1cccc2[nH]c(-c3cncc(C(=O)NC4CCC(F)(F)CC4)c3N3CC[C@](C)(N)C3)nc12 [2-17, 4-[(3S)-3-amino-3-methylpyrrolidin-1-yl]-N-(4,4-difluorocyclohexyl)-5-(4-methyl-1H-1,3-benzodiazol-2-yl)pyridine-3-carboxamide] | 10 to 100 | – | – |
| CC1(NC(=O)c2cncc(-c3cccc(C#N)c3)c2N2CC[C@H](N)C2)CCC1 [1-8, 4-[(3S)-3-aminopyrrolidin-1-yl]-5-(3-cyanophenyl)-N-(1-methylcyclobutyl)pyridine-3-carboxamide] | 100 to 1000 | – | – |
| C[C@H](NC(=O)c1cncc(-c2cncc(F)c2)c1N1CC[C@](C)(N)C1)C1CC1 [1-142, 4-[(3S)-3-amino-3-methylpyrrolidin-1-yl]-N-[(1S)-1-cyclopropylethyl]-5′-fluoro-[3,3′-bipyridine]-5-carboxamide] | < 10 | – | – |
| Cc1cccc2[nH]c(-c3cncc(C(=O)N(C)C4CC4)c3N3CC[C@](C)(N)C3)nc12 [2-22, 4-[(3S)-3-amino-3-methylpyrrolidin-1-yl]-N-cyclopropyl-N-methyl-5-(4-methyl-1H-1,3-benzodiazol-2-yl)pyridine-3-carboxamide] | 10 to 100 | – | – |
| N[C@H]1CCN(c2c(C(=O)NC3CCC(F)(F)CC3)cnc(OCCC(=O)O)c2-c2cc(F)cc(F)c2)C1 [1-204, 3-({4-[(3S)-3-aminopyrrolidin-1-yl]-5-[(4,4-difluorocyclohexyl)carbamoyl]-3-(3,5-difluorophenyl)pyridin-2-yl}oxy)propanoic acid] | > 1000 | – | – |
